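Five concentrations, 48 hours, 96-well plates. The concentration for 50% growth inhibition is given as GI50.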 The source made the active and inactive calls. Cut-off read from the data, not from the text of the source: active = GI50 up to about 1.1 µM and inactive = higher.
Columns and labels:
Assay in all cases: growth of human tumour cells (NCI), 48 h
CCRF-CEM = system: CCRF-CEM
NCI-H226 = system: NCI-H226
RXF 393 = system: RXF 393
M14 = system: M14
SK-MEL-2 = system: SK-MEL-2
HT-29 = system: HT-29
HOP-62 = system: HOP-62
HL-60 = system: HL-60
COLO 205 = system: COLO 205
OVCAR-5 = system: OVCAR-5
K562 = system: K562
MOLT-4 = system: MOLT-4
786-0 = system: 786-0
BT-549 = system: BT-549
MDA-MB-435 = system: MDA-MB-435
NCI/ADR-RES = system: NCI/ADR-RES
ACHN = system: ACHN
MDA-MB-231 = system: MDA-MB-231
SF-268 = system: SF-268
MCF7 = system: MCF7
MDA-N = system: MDA-N
SW-620 = system: SW-620
PC-3 = system: PC-3
NCI-H460 = system: NCI-H460
SF-539 = system: SF-539
NCI-H23 = system: NCI-H23
LOX IMVI = system: LOX IMVI
SF-295 = system: SF-295
SK-OV-3 = system: SK-OV-3
U-251 = system: U-251
T47D = system: T47D
CAKI-1 = system: CAKI-1
Hs-578T = system: Hs-578T
A498 = system: A498
HOP-92 = system: HOP-92
A549 = system: A549
EKVX = system: EKVX
UACC-62 = system: UACC-62
TK-10 = system: TK-10
OVCAR-4 = system: OVCAR-4
RPMI-8226 = system: RPMI-8226
HCT-116 = system: HCT-116
SR = system: SR
SK-MEL-5 = system: SK-MEL-5
HCC 2998 = system: HCC 2998
HCT-15 = system: HCT-15
DU-145 = system: DU-145
SK-MEL-28 = system: SK-MEL-28
UO-31 = system: UO-31
Malme-3M = system: Malme-3M
UACC-257 = system: UACC-257
KM12 = system: KM12
OVCAR-3 = system: OVCAR-3
SN12C = system: SN12C
OVCAR-8 = system: OVCAR-8
SNB-75 = system: SNB-75
SNB-19 = system: SNB-19

SMILES: CN(C)c1nc(NC23CC4CC(CC(C4)C2)C3)nc(N(C)C)n1
- GI50 (CCRF-CEM): 5.06 µM (inactive)
- GI50 (NCI-H226): 20.4 µM (inactive)
- GI50 (RXF 393): 3.48 µM (inactive)
- GI50 (M14): 13.1 µM (inactive)
- GI50 (SK-MEL-2): 20.1 µM (inactive)
- GI50 (HT-29): 26.6 µM (inactive)
- GI50 (HOP-62): 15.7 µM (inactive)
- GI50 (HL-60): 3.61 µM (inactive)
- GI50 (COLO 205): 11.7 µM (inactive)
- GI50 (OVCAR-5): 10.2 µM (inactive)
- GI50 (K562): 2.81 µM (inactive)
- GI50 (MOLT-4): 10 µM (inactive)
- GI50 (786-0): 15.7 µM (inactive)
- GI50 (BT-549): 21.4 µM (inactive)
- GI50 (MDA-MB-435): 21.4 µM (inactive)
- GI50 (NCI/ADR-RES): 23.4 µM (inactive)
- GI50 (ACHN): 22.3 µM (inactive)
- GI50 (MDA-MB-231): 9.98 µM (inactive)
- GI50 (SF-268): > 42.1 µM (inactive)
- GI50 (MCF7): 8.15 µM (inactive)
- GI50 (MDA-N): 8.67 µM (inactive)
- GI50 (SW-620): 12.3 µM (inactive)
- GI50 (PC-3): 8.32 µM (inactive)
- GI50 (NCI-H460): 16.6 µM (inactive)
- GI50 (SF-539): 21.8 µM (inactive)
- GI50 (NCI-H23): 9.33 µM (inactive)
- GI50 (LOX IMVI): 3.36 µM (inactive)
- GI50 (SF-295): 6.28 µM (inactive)
- GI50 (SK-OV-3): > 26.1 µM (inactive)
- GI50 (U-251): 9.1 µM (inactive)
- GI50 (T47D): 7.29 µM (inactive)
- GI50 (CAKI-1): 37.6 µM (inactive)
- GI50 (Hs-578T): 16.3 µM (inactive)
- GI50 (A498): > 54 µM (inactive)
- GI50 (HOP-92): 10.6 µM (inactive)
- GI50 (A549): 8.59 µM (inactive)
- GI50 (EKVX): 11.3 µM (inactive)
- GI50 (UACC-62): 25.8 µM (inactive)
- GI50 (TK-10): 35.6 µM (inactive)
- GI50 (OVCAR-4): > 100 µM (inactive)
- GI50 (RPMI-8226): 3.58 µM (inactive)
- GI50 (HCT-116): 20.7 µM (inactive)
- GI50 (SR): 14.5 µM (inactive)
- GI50 (SK-MEL-5): 11.1 µM (inactive)
- GI50 (HCC 2998): > 27.5 µM (inactive)
- GI50 (HCT-15): 5.15 µM
- GI50 (DU-145): 16.4 µM (inactive)
- GI50 (SK-MEL-28): 22 µM (inactive)
- GI50 (UO-31): 31.4 µM (inactive)
- GI50 (Malme-3M): 33.1 µM (inactive)
- GI50 (UACC-257): 31.3 µM (inactive)
- GI50 (KM12): 5.66 µM (inactive)
- GI50 (OVCAR-3): 17.2 µM (inactive)
- GI50 (SN12C): 27.2 µM (inactive)
- GI50 (OVCAR-8): > 53.3 µM (inactive)
- GI50 (SNB-75): 7.35 µM (inactive)
- GI50 (SNB-19): 14.9 µM (inactive)

Reference: ChEMBL document CHEMBL1201862, “PubChem BioAssay data set” (2004)
